SMILES strings stand for the structures. “Also recorded” adds a separate entry of the source. Read-outs that look alike come from different tables or passages of the source.

In one test the test system is human platelets. The test can be described thus: Platelet activation by FACS (PAC-1 antibody binding or surface P-selectin). The test is classed as cell-based. As to conditions: for AMPA mediated increase in TRAP induced platelet activation: substance added before AMPA, CNQX 100 μM, JST 1 μM. (In general: A flow cytometer gives signals particle by particle.)
In test [1] the test system is platelets. Kind of test: Platelet aggregation (aggregometer) in response to TRAP. The test is classed as cell-based, human. The conditions noted are these: for final aggregation: exogenous addition. The method, then: The functional relevance of targeting platelet AMPAR signaling was assayed by first measuring aggregation in response to TRAP (10 μM) after incubating platelets with control or CNQX (1-100 μM). […] Human platelets were isolated from healthy volunteers who had not taken aspirin or NSAID within 10 d, under a protocol approved by The Johns Hopkins University School of Medicine Institutional Review Board (JCCI). Blood was collected into citrate anticoagulant, platelets were isolated as platelet rich plasma (PRP) by centrifugation at 180 g for 15 min, and then diluted in Tyrode's buffer 1:20 for activation flow cytometry studies. To determine surface GluR1, a Fc Blocking antibody was added to reduce non-specific background antibody binding. Mouse platelets were isolated by collection into heparinized Tyrode's buffer and isolated by centrifugation. Washed platelets were resuspended in Tyrode's. Intracellular ion concentrations were performed after incubating platelets diluted 1:20 in Tyrode's buffer with SBFI for 45 minutes prior to experiments.

The subject of test [2] is platelets. Kind of test: Intracellular sodium in platelets (SBFI dye, FACS). As to conditions: for Na+ level / influx in platelets treated with TRAP alone: amiloride 100 μM. The test is classed as cell-based, human. The method, then: Human platelets were isolated from healthy volunteers who had not taken aspirin or NSAID within 10 d, under a protocol approved by The Johns Hopkins University School of Medicine Institutional Review Board (JCCI). Blood was collected into citrate anticoagulant, platelets were isolated as platelet rich plasma (PRP) by centrifugation at 180 g for 15 min, and then diluted in Tyrode's buffer 1:20 for activation flow cytometry studies. To determine surface GluR1, a Fc Blocking antibody was added to reduce non-specific background antibody binding. Mouse platelets were isolated by collection into heparinized Tyrode's buffer and isolated by centrifugation. Washed platelets were resuspended in Tyrode's. Intracellular ion concentrations were performed after incubating platelets diluted 1:20 in Tyrode's buffer with SBFI for 45 minutes prior to experiments.

A further test has as its system megakaryocytes. Kind of test: Whole-cell recordings from freshly isolated megakaryocytes. The test is classed as cell-based, mouse. As to the method:
All procedures using animals were approved by the University of Miyazaki Institutional Animal Care and Use Committee. Megakaryocyte preparation was performed as reported previously (43). Briefly, mouse bone marrow was flushed with Na+-rich external solution (Na+-ES, 150 mM NaCl, 1 mM CaCl2, and 10 mM HEPES, pH adjusted to 7.2 using NMDG-OH). Cells were dispersed by repetitive pipetting, washed three times by gentle centrifugation, resuspended in Na+-ES and used within 90 min of isolation.
Whole-cell recordings were obtained from freshly isolated megakaryocytes using an intracellular solution of the following composition: 150 mM CsCl, 1 mM ethylene glycol bis(-aminoethylether)-N,N,N′,N′-tetraacetic acid (EGTA) and 10 mM HEPES. The pH was adjusted to 7.3 using NMDG-OH. The patch-clamp procedures were similar to those described previously (43). Briefly, the experiments were performed in the tight seal whole-cell configuration at room temperature and electrical signals were acquired with an HEKA EPC-7 (Darmstadt, Germany). The pipette resistances ranged between 2 MΩ and 3 MΩ. Current-voltage relationships (I-V curves) were obtained by clamping the cell to different potentials in 30 mV increments (−30, 0 and +30 mV; each of 35 ms duration) from a holding potential of −60 mV. I-V curves obtained prior to the application of the agonists were subtracted from those (typically two) obtained in the presence of the agonists. The current responses were monitored on a chart recorder (WR7700, Graphtec, Tokyo, Japan) through a lowpass filter (200 Hz). Chemicals and reagents used were purchased from either Sigma (St. Louis, Mo.) or Wako Pure Chemicals (Osaka, Japan). […] The perfusion pipette was located within 30 μm of the cell and the puff pressure was adjusted to obtain rapid and effective agonist application (<10 msec).

Test [3] can be described thus: Intravital microscopy of FeCl3 induced thrombosis in mesenteric arterioles. The test is classed as in vivo, mouse. As to conditions: for time to total vessel occlusion: FeCl3 injury.
The test system of test [4] is AMPA receptor subunits GluR1-4 and kainate receptor subunit GluR5. The conditions noted are these: cited from earlier work.
The mark [5] stands for this setting: i.v. 20 mins before FeCl3, vs PBS.
The mark [6] stands for this setting: moderate TRAP (5 μM), platelets pre-incubated with substance.

Procedure for Tail bleeding time: Mice were treated intravenously (i.v.) with control PBS or CNQX (0.1 mg/kg) and 20 mins later tail bleeding times were determined.
6 week old male mice were anesthetized with ketamine and xylazine (80/13 mg/kg) and injected i.v. with either PBS or CNQX:HBC, 0.1 mg/kg of active CNQX. Twenty minutes later the distal 3 mm of the tail was amputated, immersed in 37° C. saline and the time to visual cessation of bleeding recorded.
Procedure for human platelets: It was next determined whether glutamate is a mediator of platelet activation.
Blood was collected into citrate anticoagulant, platelets were isolated as platelet rich plasma (PRP) by centrifugation at 180 g for 15 min, and then diluted in Tyrode's buffer 1:20 for activation flow cytometry studies. […] Washed platelets were resuspended in Tyrode's.

In the case of `N[C@@H](CCC(=O)O)C(=O)O` [glutamate], in the test on human platelets, the “ATP mediated platelet activation” value is recorded as “not increased”, the “P2Y agonist 2-Me-ADP induced platelet activation” value is “increases”, the “TRAP induced platelet activation (PAC-1 antibody binding)” value is given as “significantly increases platelet activation; also recorded: dose dependently increases” and the “TRAP induced platelet activation: P-selectin expression” value was “increases agonist induced platelet activation”. In addition, in the test with human platelets, the “collagen induced platelet activation” value is listed as “no effect”, the “epinephrine induced platelet activation” value was “significantly increases”, the “increase in platelet activation following low concentration TRAP versus control” value is reported as “approximately two times greater” and the “increase in platelet activation following low concentration thromboxane mimetic versus control” value was “approximately three times greater than control”. Also, in the test with human platelets, the “increase of TRAP induced platelet activation compared to control treated platelets” value is “greater than 50%”, the “platelet activation at high TRAP concentration” value is listed as “no effect”, the “platelet activation in response to thromboxane mimetic U46619” value is listed as “dose dependently increases” and the “resting platelet activation (PAC-1 antibody binding)” value is given as “does not increase”. In the test on platelets [1], the final aggregation entry is “no effect”.

Consider `Cc1onc(O)c1C[C@H](N)C(=O)O` [AMPA, alpha(α)-amino-3-hydroxy-5-methyl-4-isoxazolepropionic acid], for which, in the test on human platelets, the “platelet activation in response to thromboxane mimetic U46619” value is “increases platelet activation”. In the test on platelets [1] (AMPA 1 mM pre-treatment), the “platelets aggregated at 1 min post-TRAP” value is “approximately 75%”. The “rate of early aggregation” value in the test with platelets [1] (AMPA 1 mM, TRAP 10 μM) is “increases”. Besides, the final aggregation result in the test with platelets [1] was “no effect”. The “Na+ influx in response to TRAP after NHE inhibition” value in the test on platelets [2] (AMPA added after amiloride (100 μM)) is listed as “restores Na+ influx”. Also, in the test with megakaryocytes, the “current on rapid application without cyclothiazide” value is “did not induce a measurable current”, the “inward current following rapid perfusion” value is recorded as 8.6+/−4.5 pA and the “reversal potential of the agonist-induced current” value was approximately 0 mV.

For `NCCCNCCCCNCCC(=O)NCCCCCNC(=O)[C@H](CC(N)=O)NC(=O)Cc1ccc(O)cc1O` [JST], the “AMPA mediated increase in TRAP induced platelet activation” value with human platelets is reported as “no effect”.

Consider `CC(C)(C)c1o[nH]c(=O)c1CC(N)C(=O)O` (stereo not shown) [ATPA], for which the “platelet activation by FACS” value in the test with human platelets is given as “increases platelet activation”.

`O=C(O)C1CN(CCCP(=O)(O)O)CCN1` (racemic) [CPP, (±)-3-(2-Carboxypiperazin-4-yl)propyl-1-phosphonic acid]: the “glutamate mediated increase in TRAP induced platelet activation” value in the test with human platelets is given as “does not inhibit”.

Take `N[C@@H](Cn1ccc(=O)n(Cc2ccccc2C(=O)O)c1=O)C(=O)O` [UBP302]: the “time to total vessel occlusion” value in test [3] is listed as “prolonged time to total vessel occlusion”. Also, in the test with human platelets, the “platelet activation by FACS” value is listed as “dose dependently reduces platelet activation”. Moreover, in “Tail bleeding time” (mouse, in vivo), the “bleeding time in mice” value was “prolongs bleeding time”.

As to `N#Cc1cc2[nH]c(=O)c(=O)[nH]c2cc1[N+](=O)[O-]` [CNQX, -cyano-7-nitroquinoxaline-2,3-dione], in test [3], the “time to total vessel occlusion” value is “prolonged”. In test [3] (setting [5]), the “time to platelet adhesion (greater than 10 platelets adherent for greater than 10 sec)” value is reported as “prolonged” and the “time to thrombus formation (first stable thrombus greater than 20 μm)” value is “prolonged”. In the test with human platelets (10 μM CNQX), the “TRAP induced platelet activation at low antagonist concentration” value is “significantly decreases platelet activation”. Also, the “TRAP induced platelet activation: P-selectin expression” value in the test with human platelets (P-selectin by FACS) was “decreases platelet activation”. Besides, in the test on human platelets (setting [6]), the “TRAP induced platelet activation (PAC-1 antibody binding)” value was “inhibits”. In addition, the “AMPA mediated increase in TRAP induced platelet activation” value in the test on human platelets is “inhibits the effects of AMPA”. Further, the “platelet aggregation in response to TRAP” value in the test with platelets [1] (TRAP 10 μM, CNQX 1-100 μM) is on record as “dose dependently reduces platelet aggregation”. Moreover, in the test with platelets [2] (CNQX 100 μM), the “Na+ concentration in platelets treated with AMPA and TRAP” value is “decreases Na+ concentrations”; the “Na+ level / influx in platelets treated with TRAP alone” value was “decreases Na+ levels”. Besides, in “Tail bleeding time” (0.1 mg/kg i.v., 20 mins before), the “average tail bleeding time” value is “approximately 600 sec”. Also, the “AMPA induced inward current in presence of antagonist” value in the test on megakaryocytes (CNQX 30 μM) is listed as “blocked”. Further, in test [4], the “selectivity for AMPAR subunits versus KA receptor subunits” value is 20-150 fold.

On to `N[C@@H](Cn1nc(Cl)c(=O)[nH]c1=O)C(=O)O` [5-chloro-6-azawillardiine], for which the “selectivity for GluR4 over GluR1 and 2” value in test [4] (at the cost of selectivity for AMPA over kainate receptors) is reported as “some selectivity”.

Turning to `N=C(N)NC(=O)c1nc(Cl)c(N)nc1N` [amiloride], the “Na+ level / influx in platelets treated with TRAP alone” value in the test on platelets [2] (CNQX 100 μM) was “reduces Na+ influx”.

`C=C(C)[C@H]1CN[C@H](C(=O)O)[C@H]1CC(=O)O` [KA, kainic acid]: the “TRAP induced platelet activation (PAC-1 antibody binding)” value with human platelets (setting [6]) is recorded as “dose dependently increases”. Further, the “inward current following rapid perfusion” value in the test with megakaryocytes (100 μM, cyclothiazide in the recording solution) is 3.1+/−0.9 pA. Further, the “current on rapid application without cyclothiazide” value with megakaryocytes (0.1 or 1 mM, no cyclothiazide) is on record as “did not induce a measurable current”. Besides, the “reversal potential of the agonist-induced current” value with megakaryocytes (I-V curves, cyclothiazide, no obvious rectification) is reported as approximately 0 mV.

Source of the values: patent US8603980B2, “Glutamate receptor antagonists and methods of use” (The Johns Hopkins University, priority 2007, dated 2013).
